Measured values published in ChEMBL document CHEMBL1121689, “A dopamine receptor model and its application in the design of a new class of rigid pyrrolo[2,3-g]isoquinoline antipsychotics” (1981).

Columns and labels:
[1] = system: Rattus norvegicus; assay: Dose required for producing 50% block of avoidance responding in rats after peroral administration; type: functional
[2] = system: Rattus norvegicus; assay: Dose required for producing 20% block of escape responding in rats after peroral administration; type: functional

Compound	ABD50 [1] [mg/kg]	EBD20 [2] [mg/kg]
CCc1c(C)[nH]c2c1C(=O)[C@@H]1CN(C)CC[C@H]1C2.Cl	>6	–
CCc1c(C)[nH]c2c1C(=O)[C@H]1CN(C)CC[C@@H]1C2.Cl	0.49	3.6
CCc1c(C)[nH]c2c1C(=O)C1CN(C)CCC1C2.Cl (racemic)	0.72	9.8
O=C(CCCN1CCC(O)(c2ccc(Cl)cc2)CC1)c1ccc(F)cc1 [HALOPERIDOL]	0.35	2.7
CCc1c(C)[nH]c2c1C(=O)C(CN1CCOCC1)CC2 (centres undefined) [MOLINDONE]	3.6	17.1
